# Source: patent US20140242590A1, “FLT3 MUTATIONS ASSOCIATED WITH DRUG RESISTANCE IN AML PATIENTS HAVING ACTIVATING MUTATIONS IN FLT3” (THE REGENTS OF THE UNIVERSITY OF CALIFORNIA, priority 2011, published 2014)
# How the values were obtained:
# FLT3-ITD mutant isoforms = assay: Immunoblotting with anti-phospho-FLT3 / anti-FLT3 on Ba/F3 lysates (cell-based biochemical assay); conditions: five AC220-resistant FLT3-ITD substitutions; 90 minutes exposure
# Protocol: Exponentially growing Ba/F3 cells stably expressing each mutant along with a WT FLT3-ITD control were plated in RPMI medium 1640+10% FCS supplemented with kinase inhibitor at the indicated concentration. After a 90-minute incubation, the cells were washed in phosphate buffered saline (PBS) and lysed in Cell Extraction Buffer (Invitrogen) supplemented with protease and phosphatase inhibitors. The lysate was clarified by centrifugation and quantitated by BCA assay (Thermo Scientific). Protein was subjected to sodium dodecylsulfate polyacrylamide electrophoresis and transferred to nitrocellulose membranes. Immunoblotting was performed using anti-phospho-FLT3 (Cell Signaling) and anti-FLT3 S18 antibody (Santa Cruz Biotechnology).
# [1] = tested on: Ba/F3 cells expressing FLT3-ITD mutant isoforms; conditions: literature report (ref 18); cited from earlier work
# [2] = tested on: Ba/F3 cells expressing FLT3-ITD mutant isoforms; assay: Cell-viability assay of Ba/F3 populations stably expressing FLT3-ITD mutant isoforms; type: cell-based; conditions: 48 hours
# Protocol: Stable Ba/F3 lines were generated by using retroviral spinfection with the appropriate mutated plasmid as outlined above, with the exception of the exclusion of polybrene. At 48 h post-infection, puromycin was added to infected cells at a concentration of 4 μg/mL. Cells were selected in the presence of puromycin for 7-10 days and subsequently IL-3 was washed twice from the cells with media and cells were selected in RPMI medium 1640+10% FCS in the absence of IL-3. Exponentially growing BaiF3 cells (5×10^4) were plated in each well of a 24-well dish with 1 ml of RPMI 1640+10% FCS containing the appropriate concentration of drug as indicated in triplicate. Cells were allowed to expand for 2 days and were counted by using a Vi-cell XR automated cell viability analyzer (Beckman Coulter). The mean number of viable cells at varying concentrations of drug was normalized to the median number of viable cells in the no-drug sample for each mutant. Error bars represent the standard deviation. Numerical IC50 values were generated using non-linear best-fit regression analysis using Prism 5 software (GraphPad).
smiles,measurement,setting,value
CNC(=O)c1cc(Oc2ccc(NC(=O)Nc3ccc(Cl)c(C(F)(F)F)c3)cc2)ccn1 [sorafenib],cross-resistance of AC220-resistant mutations in biochemical assay (phospho-FLT3),FLT3-ITD mutant isoforms,substantial cross-resistance
same,"sensitivity of FLT3-ITD/D835V in vitro, previously reported",[1],retain sensitivity
same,resistance conferred by D835F mutation in vitro,[2]; FLT3-ITD/D835F vs FLT3-ITD,cross-resistance
same,cross-resistance of AC220-resistant mutations in cell-based growth assay,[2]; five AC220-resistant FLT3-ITD substitutions,substantial cross-resistance
